Experimental data: publication PMC3302206 (Biochemistry, 2012)
Values after ≈ are worked out from the molar mass of the structure shown. Ends that are not written are not given here.

Assays:
E. coli DC2 = format: cell-based, Escherichia coli; conditions: DC2, 16 h
E. coli K12 = format: cell-based, Escherichia coli; conditions: wild type strain; broth microdilution, measured as described (ref 18 protocol)
wild type S. aureus = format: cell-based, Staphylococcus aureus
[1] = tested on: wild type S. aureus Rosenbach strain; format: cell-based, Staphylococcus aureus; conditions: 16 h
S. aureus mprF mutant [2] = format: cell-based, Staphylococcus aureus; conditions: for MBC, S. aureus mprF mutant, −C: absence of carbonate; for MBC, S. aureus mprF mutant, +C: carbonate present
[3] = tested on: Staphylococcus aureus UAMS-1; format: cell-based; conditions: clinical isolate
S. aureus mprF mutant [4] = format: cell-based, Staphylococcus aureus; conditions: for MIC, S. aureus mprF mutant, −C: absence of carbonate; for MIC, S. aureus mprF mutant, +C: physiological concentration of carbonate present

CC[C@H](C)[C@H](NC(=O)[C@H](CCCCN)NC(=O)[C@H](CCC(=O)O)NC(=O)[C@H](CCCCN)NC(=O)[C@H](C)NC(=O)[C@H](CCCCN)NC(=O)[C@H](CCCNC(=N)N)NC(=O)[C@H](Cc1ccccc1)NC(=O)[C@H](Cc1ccccc1)NC(=O)[C@H](CC(=O)O)NC(=O)CNC(=O)[C@H](CC(C)C)NC(=O)[C@@H](N)CC(C)C)C(=O)NCC(=O)N[C@@H](CCCCN)C(=O)N[C@@H](CCC(=O)O)C(=O)N[C@@H](Cc1ccccc1)C(=O)N[C@@H](CCCCN)C(=O)N[C@@H](CCCNC(=N)N)C(=O)N[C@H](C(=O)N[C@H](C(=O)N[C@@H](CCC(N)=O)C(=O)N[C@@H](CCCNC(=N)N)C(=O)N[C@H](C(=O)N[C@@H](CCCCN)C(=O)N[C@@H](CC(=O)O)C(=O)N[C@@H](Cc1ccccc1)C(=O)N[C@@H](CC(C)C)C(=O)N[C@@H](CCCNC(=N)N)C(=O)N[C@@H](CC(N)=O)C(=O)N[C@@H](CC(C)C)C(=O)N[C@H](C(=O)N1CCC[C@H]1C(=O)N[C@@H](CCCNC(=N)N)C(=O)N[C@H](C(=O)N[C@@H](CCC(=O)O)C(=O)N[C@@H](CO)C(=O)O)[C@@H](C)O)C(C)C)[C@@H](C)CC)C(C)C)[C@@H](C)CC [LL-37A9]
MIC, E. coli DC2 (E. coli DC2): 6 µM (≈ 26.9 µg/mL)

CC[C@H](C)[C@H](NC(=O)[C@H](CCCCN)NC(=O)[C@H](CCC(=O)O)NC(=O)[C@H](CCCCN)NC(=O)[C@H](CO)NC(=O)[C@H](CCCCN)NC(=O)[C@H](CCCNC(=N)N)NC(=O)[C@H](Cc1ccccc1)NC(=O)[C@H](Cc1ccccc1)NC(=O)[C@H](CC(=O)O)NC(=O)CNC(=O)[C@H](CC(C)C)NC(=O)[C@@H](N)CC(C)C)C(=O)NCC(=O)N[C@@H](CCCCN)C(=O)N[C@@H](CCC(=O)O)C(=O)N[C@@H](Cc1ccccc1)C(=O)N[C@@H](CCCCN)C(=O)N[C@@H](CCCNC(=N)N)C(=O)N[C@H](C(=O)N[C@H](C(=O)N[C@@H](CCC(N)=O)C(=O)N[C@@H](CCCNC(=N)N)C(=O)N[C@H](C(=O)N[C@@H](CCCCN)C(=O)N[C@@H](CC(=O)O)C(=O)N[C@@H](Cc1ccccc1)C(=O)N[C@@H](CC(C)C)C(=O)N[C@@H](CCCNC(=N)N)C(=O)N[C@@H](CC(N)=O)C(=O)N[C@@H](CC(C)C)C(=O)N[C@H](C(=O)N1CCC[C@H]1C(=O)N[C@@H](CCCNC(=N)N)C(=O)N[C@H](C(=O)N[C@@H](CCC(=O)O)C(=O)N[C@@H](CO)C(=O)O)[C@@H](C)O)C(C)C)[C@@H](C)CC)C(C)C)[C@@H](C)CC [LL-37]
MIC, E. coli K12 (E. coli K12): 5 µM (≈ 22.5 µg/mL)

LLGDFFRKSKEKIGKEFKRIVQR [LL-23]
MIC, E. coli DC2 (E. coli DC2): 9 µM
MBC, WT S. aureus, +C (wild type S. aureus): >24 µM
MBC, WT S. aureus, −C (wild type S. aureus): >24 µM
MIC, WT S. aureus, +C [1]: >24 µM
MIC, WT S. aureus, −C [1]: >24 µM
MBC, S. aureus mprF mutant, −C (S. aureus mprF mutant [2]): >24 µM
MBC, S. aureus mprF mutant, +C (S. aureus mprF mutant [2]): 12 µM
MIC, Staphylococcus aureus UAMS-1 [3]: > 160 µM
MIC, S. aureus mprF mutant, −C (S. aureus mprF mutant [4]): 24 µM
MIC, S. aureus mprF mutant, +C (S. aureus mprF mutant [4]): 3 µM

LLGDFFRKVKEKIGKEFKRIVQR [LL-23V9]
MIC, E. coli DC2 (E. coli DC2): 2 µM
MBC, WT S. aureus, +C (wild type S. aureus): >24 µM
MBC, WT S. aureus, −C (wild type S. aureus): >24 µM
MIC, WT S. aureus, +C [1]: 12 µM
MIC, WT S. aureus, −C [1]: >24 µM
MBC, S. aureus mprF mutant, −C (S. aureus mprF mutant [2]): 3 to 6 µM
MBC, S. aureus mprF mutant, +C (S. aureus mprF mutant [2]): 6 to 12 µM
MIC, S. aureus mprF mutant, −C (S. aureus mprF mutant [4]): 6 µM
MIC, S. aureus mprF mutant, +C (S. aureus mprF mutant [4]): 0.35 to 0.7 µM

LLGDFFRKAKEKIGKEFKRIVQR [LL-23A9]
MIC, E. coli DC2 (E. coli DC2): 9 µM
MBC, WT S. aureus, +C (wild type S. aureus): >24 µM
MBC, WT S. aureus, −C (wild type S. aureus): >24 µM
MIC, WT S. aureus, +C [1]: >24 µM
MIC, WT S. aureus, −C [1]: >24 µM
MBC, S. aureus mprF mutant, −C (S. aureus mprF mutant [2]): 6 to 12 µM
MBC, S. aureus mprF mutant, +C (S. aureus mprF mutant [2]): 6 µM
MIC, S. aureus mprF mutant, −C (S. aureus mprF mutant [4]): 6 µM
MIC, S. aureus mprF mutant, +C (S. aureus mprF mutant [4]): 0.35 to 0.7 µM

CC[C@H](C)[C@H](NC(=O)[C@H](CCCCN)NC(=O)[C@H](CCC(=O)O)NC(=O)[C@H](CCCCN)NC(=O)[C@@H](NC(=O)[C@H](CCCCN)NC(=O)[C@H](CCCNC(=N)N)NC(=O)[C@H](Cc1ccccc1)NC(=O)[C@H](Cc1ccccc1)NC(=O)[C@H](CC(=O)O)NC(=O)CNC(=O)[C@H](CC(C)C)NC(=O)[C@@H](N)CC(C)C)C(C)C)C(=O)NCC(=O)N[C@@H](CCCCN)C(=O)N[C@@H](CCC(=O)O)C(=O)N[C@@H](Cc1ccccc1)C(=O)N[C@@H](CCCCN)C(=O)N[C@@H](CCCNC(=N)N)C(=O)N[C@H](C(=O)N[C@H](C(=O)N[C@@H](CCC(N)=O)C(=O)N[C@@H](CCCNC(=N)N)C(=O)N[C@H](C(=O)N[C@@H](CCCCN)C(=O)N[C@@H](CC(=O)O)C(=O)N[C@@H](Cc1ccccc1)C(=O)N[C@@H](CC(C)C)C(=O)N[C@@H](CCCNC(=N)N)C(=O)N[C@@H](CC(N)=O)C(=O)N[C@@H](CC(C)C)C(=O)N[C@H](C(=O)N1CCC[C@H]1C(=O)N[C@@H](CCCNC(=N)N)C(=O)N[C@H](C(=O)N[C@@H](CCC(=O)O)C(=O)N[C@@H](CO)C(=O)O)[C@@H](C)O)C(C)C)[C@@H](C)CC)C(C)C)[C@@H](C)CC [LL-37V9]
MIC, E. coli DC2 (E. coli DC2): 12 µM (≈ 54.1 µg/mL)
